The test system of this experiment is BDF1 mice, B16 melanoma ip, median survival T/C. Kind of experiment: NCI In Vivo Anticancer Drug Screen. Data for tumor model B16 Melanoma (intraperitoneal) in B6D2F1 (BDF1) mice. The following applies: endpoint: median survival time, higher = longer survival. The method in brief: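 Survival or tumor size is measured after treatment of tumor-bearing mice and normalised to the vehicle-treated control group.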

The mark [1] stands for this setting: dose: 25.0 mg/kg/injection, schedule: Q01DX009 (ip), vehicle: saline.
Where [2] appears, read: dose: 50.0 mg/kg/injection, schedule: Q01DX009 (ip), vehicle: saline.

Where “and” joins values, the source holds several entries; their conditions need not be identical. Equal values may be shown once. Toxic doses and inconclusive results are not listed.

Consider `S=C(N=Nc1ccccc1)NNc1ccccc1`, for which the T/C was 102 % of control (dose: 18.8 mg/kg/injection, schedule: Q04DX003 (ip), vehicle: saline with Tween-80); 88 % of control (dose: 18.9 mg/kg/injection, schedule: Q01DX009 (ip), vehicle: saline with Tween-80); 93 % of control (dose: 37.5 mg/kg/injection, schedule: Q01DX009 (ip), vehicle: saline with Tween-80); 92 % of control (dose: 37.5 mg/kg/injection, schedule: Q04DX003 (ip), vehicle: saline with Tween-80); 92 % of control (dose: 75.0 mg/kg/injection, schedule: Q04DX003 (ip), vehicle: saline with Tween-80); 97 % of control (dose: 150.0 mg/kg/injection, schedule: Q04DX003 (ip), vehicle: saline with Tween-80).
With `COc1ccc(NC(=O)Nc2ccccc2F)cc1`, the T/C reads like this: (dose: 100.0 mg/kg/injection, schedule: Q01DX009 (ip), vehicle: Klucel (hydroxypropylcellulose) (HPC)) 97 % of control; (dose: 200.0 mg/kg/injection, schedule: Q01DX009 (ip), vehicle: Klucel (hydroxypropylcellulose) (HPC)) 97 % of control.
`CCC(C)C(C(=O)OC1CCN(C)CC1)c1ccccc1` (stereo not drawn): the T/C under setting [1] was 101 % of control and the T/C under setting [2] was 90 % of control.
As for `CC[CH2][Pb]([Cl])([CH2]CC)[CH2]CC`, the T/C (dose: 0.09 mg/kg/injection, schedule: Q01DX009 (ip), vehicle: DMSO) is 100 % of control; the T/C (dose: 0.18 mg/kg/injection, schedule: Q01DX009 (ip), vehicle: DMSO) was 92 % of control; the T/C (dose: 0.37 mg/kg/injection, schedule: Q01DX009 (ip), vehicle: DMSO) was 95 % of control; the T/C (dose: 0.75 mg/kg/injection, schedule: Q01DX009 (ip), vehicle: DMSO) was 95 % of control; the T/C (dose: 1.5 mg/kg/injection, schedule: Q01DX009 (ip), vehicle: DMSO) was 92 % of control.
On to `CC(=O)OCC1OC(n2ccc(N)nc2=O)C(OC(C)=O)C1OC(C)=O` (stereo not drawn), for which the T/C is, setting by setting: (dose: 12.5 mg/kg/injection, schedule: Q01DX009 (ip), vehicle: saline) 105 % of control; under setting [1], 105 % of control; under setting [2], 105 % of control; (dose: 100.0 mg/kg/injection, schedule: Q01DX009 (ip), vehicle: saline) 109 % of control.
With `O=NN(CCCl)C(=O)NCCCl`, the T/C reads like this: (dose: 0.25 mg/kg/injection, schedule: Q01DX009 (ip), vehicle: saline with Tween-80) 102 % of control; (dose: 0.5 mg/kg/injection, schedule: Q01DX009 (ip), vehicle: saline + alcohol) 105 % of control and 110 % of control; (dose: 0.5 mg/kg/injection, schedule: Q01DX009 (ip), vehicle: saline with Tween-80) 109 % of control; (dose: 1.0 mg/kg/injection, schedule: Q01DX009 (ip), vehicle: saline + alcohol) 108 % of control and 115 % of control; (dose: 1.0 mg/kg/injection, schedule: Q01DX009 (ip), vehicle: saline with Tween-80) 110 % of control and 113 % of control (2×); (dose: 1.5 mg/kg/injection, schedule: Q01DX009 (ip), vehicle: alcohol) 113 % of control and 116 % of control. Further, the T/C runs as follows: (dose: 1.5 mg/kg/injection, schedule: Q01DX009 (ip), vehicle: other) 95 % of control and 104 % of control; (dose: 1.87 mg/kg/injection, schedule: Q01DX009 (ip), vehicle: saline) 115 % of control; (dose: 1.9 mg/kg/injection, schedule: Q01DX001 (ip), vehicle: saline) 115 % of control; (dose: 2.0 mg/kg/injection, schedule: Q01DX009 (ip), vehicle: saline + alcohol) 109 % of control and 118 % of control; (dose: 2.0 mg/kg/injection, schedule: Q01DX009 (ip), vehicle: saline with Tween-80) 109 % of control and 115 % of control and 122 % of control; (dose: 2.0 mg/kg/injection, schedule: Q04DX003 (ip), vehicle: saline + alcohol) 118 % of control. Moreover, the T/C is, setting by setting: (dose: 3.0 mg/kg/injection, schedule: Q01DX009 (ip), vehicle: other) 105 % of control and 114 % of control; (dose: 3.75 mg/kg/injection, schedule: Q01DX001 (ip), vehicle: saline) 115 % of control; (dose: 4.0 mg/kg/injection, schedule: Q01DX009 (ip), vehicle: saline with Tween-80) 152 % of control; (dose: 5.0 mg/kg/injection, schedule: Q01DX001 (ip), vehicle: saline + alcohol) 111 % of control and 122 % of control; (dose: 5.0 mg/kg/injection, schedule: Q01DX009 (ip), vehicle: other) 190 % of control; (dose: 5.0 mg/kg/injection, schedule: Q04DX003 (ip), vehicle: saline + alcohol) 113 % of control and 115 % of control. Besides, the T/C reads like this: (dose: 6.0 mg/kg/injection, schedule: Q01DX009 (ip), vehicle: alcohol) 160 % of control and 188 % of control; (dose: 6.0 mg/kg/injection, schedule: Q01DX009 (ip), vehicle: other) 171 % of control and 179 % of control; (dose: 7.5 mg/kg/injection, schedule: Q01DX001 (ip), vehicle: saline) 119 % of control; (dose: 7.5 mg/kg/injection, schedule: Q01DX009 (ip), vehicle: saline) 192 % of control; (dose: 8.0 mg/kg/injection, schedule: Q01DX001 (ip), vehicle: saline + alcohol) 107 % of control; (dose: 8.0 mg/kg/injection, schedule: Q01DX009 (ip), vehicle: saline + alcohol) 207 % of control and 221 % of control. Further, the T/C runs as follows: (dose: 8.0 mg/kg/injection, schedule: Q01DX009 (ip), vehicle: saline with Tween-80) 165 % of control and 168 % of control and 183 % of control; (dose: 8.0 mg/kg/injection, schedule: Q04DX003 (ip), vehicle: saline + alcohol) 111 % of control; (dose: 10.0 mg/kg/injection, schedule: Q01DX001 (ip), vehicle: saline) 121 % of control; (dose: 12.0 mg/kg/injection, schedule: Q01DX009 (ip), vehicle: other) 153 % of control; (dose: 15.0 mg/kg/injection, schedule: Q01DX009 (ip), vehicle: saline) 200 % of control; (dose: 16.0 mg/kg/injection, schedule: Q01DX009 (ip), vehicle: saline + alcohol) 53 % of control and 65 % of control. Moreover, the T/C (dose: 16.0 mg/kg/injection, schedule: Q04DX003 (ip), vehicle: saline + alcohol) is 186 % of control; the T/C (dose: 20.0 mg/kg/injection, schedule: Q01DX001 (ip), vehicle: saline) was 154 % of control; the T/C (dose: 20.0 mg/kg/injection, schedule: Q04DX003 (ip), vehicle: saline + alcohol) was 157 % of control and 210 % of control and 229 % of control; the T/C (dose: 30.0 mg/kg/injection, schedule: Q01DX001 (ip), vehicle: saline + alcohol) is 154 % of control; the T/C (dose: 30.0 mg/kg/injection, schedule: Q01DX001 (ip), vehicle: saline) is 189 % of control; the T/C (dose: 32.0 mg/kg/injection, schedule: Q01DX009 (ip), vehicle: saline + alcohol) is 40 % of control and 44 % of control. The T/C by setting is: (dose: 32.0 mg/kg/injection, schedule: Q04DX003 (ip), vehicle: saline + alcohol) 248 % of control; (dose: 40.0 mg/kg/injection, schedule: Q01DX001 (ip), vehicle: saline) 207 % of control; (dose: 40.0 mg/kg/injection, schedule: Q04DX003 (ip), vehicle: saline + alcohol) 62 % of control and 80 % of control; (dose: 60.0 mg/kg/injection, schedule: Q01DX001 (ip), vehicle: saline) 106 % of control; (dose: 64.0 mg/kg/injection, schedule: Q01DX001 (ip), vehicle: saline + alcohol) 42 % of control; (dose: 64.0 mg/kg/injection, schedule: Q01DX009 (ip), vehicle: saline + alcohol) 28 % of control and 30 % of control. In addition, the T/C runs as follows: (dose: 64.0 mg/kg/injection, schedule: Q04DX003 (ip), vehicle: saline + alcohol) 43 % of control; (dose: 128.0 mg/kg/injection, schedule: Q04DX003 (ip), vehicle: saline + alcohol) 37 % of control; (dose: 256.0 mg/kg/injection, schedule: Q04DX003 (ip), vehicle: saline + alcohol) 20 % of control.
In the case of `CCOC(=O)C(Cc1ccc(Cl)c(Cl)c1)(Cc1ccc(Cl)c(Cl)c1)C(=O)OCC`, the T/C (dose: 12.5 mg/kg/injection, schedule: Q01DX009 (ip), vehicle: saline with Tween-80) was 99 % of control; the T/C (dose: 25.0 mg/kg/injection, schedule: Q01DX009 (ip), vehicle: saline with Tween-80) was 97 % of control; the T/C (dose: 50.0 mg/kg/injection, schedule: Q01DX009 (ip), vehicle: saline with Tween-80) is 94 % of control.
Consider `OCC1OC(n2cnc3c2NC=NC[C@H]3O)CC1O` (stereo partly drawn), for which the T/C is 109 % of control (dose: 0.06 mg/kg/injection, schedule: Q01DX009 (ip), vehicle: saline); 104 % of control (dose: 0.12 mg/kg/injection, schedule: Q01DX009 (ip), vehicle: saline); 101 % of control and 103 % of control (dose: 0.25 mg/kg/injection, schedule: Q01DX009 (ip), vehicle: saline); 102 % of control and 106 % of control (dose: 0.5 mg/kg/injection, schedule: Q01DX009 (ip), vehicle: saline); 90 % of control and 98 % of control (dose: 1.0 mg/kg/injection, schedule: Q01DX009 (ip), vehicle: saline); 86 % of control (dose: 2.0 mg/kg/injection, schedule: Q01DX009 (ip), vehicle: saline).
